# Measurements from ChEMBL document CHEMBL3576838, “Synthesis and in vitro and in vivo biological evaluation of substituted nitroquinoxalin-2-ones and 2,3-diones as novel trichomonacidal agents” (Eur J Med Chem, 2015).
# Legend:
# Trichomonas vaginalis [1] = test: Trichomonicidal activity against Trichomonas vaginalis JH31A#4 trophozite assessed as inhibition of parasite growth after 24 hrs by resazurin redox dye based fluorimetric microtiter method; format: functional, organism-based; details: JH31A#4, 24 h
# Trichomonas vaginalis [2] = test: Trichomonicidal activity against Trichomonas vaginalis JH31A#4 trophozite assessed as inhibition of parasite growth at 300 uM after 24 hrs by resazurin redox dye based fluorimetric microtiter method; format: functional; details: JH31A#4, 24 h
# Trichomonas vaginalis [3] = test: Trichomonicidal activity against Trichomonas vaginalis JH31A#4 trophozite assessed as inhibition of parasite growth at 150 uM after 24 hrs by resazurin redox dye based fluorimetric microtiter method; format: functional; details: JH31A#4, 24 h
# Trichomonas vaginalis [4] = test: Trichomonicidal activity against Trichomonas vaginalis JH31A#4 trophozite assessed as inhibition of parasite growth at 75 uM after 24 hrs by resazurin redox dye based fluorimetric microtiter method; format: functional; details: JH31A#4, 24 h
# Trichomonas vaginalis [5] = test: Trichomonicidal activity against Trichomonas vaginalis JH31A#4 trophozite assessed as inhibition of parasite growth at 37.5 uM after 24 hrs by resazurin redox dye based fluorimetric microtiter method; format: functional; details: JH31A#4, 24 h
# Trichomonas vaginalis [6] = test: Trichomonicidal activity against Trichomonas vaginalis JH31A#4 trophozite assessed as inhibition of parasite growth at 18.75 uM after 24 hrs by resazurin redox dye based fluorimetric microtiter method; format: functional; details: JH31A#4, 24 h
# Trichomonas vaginalis [7] = test: Trichomonicidal activity against Trichomonas vaginalis JH31A#4 trophozite assessed as inhibition of parasite growth at 9.37 uM after 24 hrs by resazurin redox dye based fluorimetric microtiter method; format: functional; details: JH31A#4, 24 h
# Trichomonas vaginalis [8] = test: Trichomonicidal activity against Trichomonas vaginalis JH31A#4 trophozite assessed as inhibition of parasite growth at 10 ug/ml after 24 hrs by resazurin redox dye based fluorimetric microtiter method; format: functional; details: JH31A#4, 24 h, read-out: GI
# Vero = test: Cytotoxicity against African green monkey Vero cells at 300 uM after 24 hrs by resazurin redox dye based fluorimetric microtiter method; format: cell-based; details: chlorocebus sabaeus
# [9] = Cytotoxicity against African green monkey Vero cells assessed as inhibition of cell growth after 24 hrs by resazurin redox dye based fluorimetric microtiter method; details: chlorocebus sabaeus
# [10] = Selectivity index, ratio of CC50 for African green monkey Vero cells to IC50 for Trichomonas vaginalis JH31A#4 trophozite; format: functional
# Trichomonas vaginalis [11] = test: Trichomonicidal activity against Trichomonas vaginalis C-1:NIH trophozoites infected in NMRI mouse assessed as reduction of pathogenicity at 50 mg/kg, po administered for 7 days from day 3 to day 10 post-infection measured at day 15 post-infection; format: functional
# Trichomonas vaginalis [12] = test: Trichomonicidal activity against Trichomonas vaginalis C-1:NIH trophozoites infected in NMRI mouse assessed as reduction of pathogenicity at 100 mg/kg, po administered for 7 days from day 3 to day 10 post-infection measured at day 15 post-infection; format: functional
# Mus musculus = test: Toxicity against NMRI mouse infected with Trichomonas vaginalis C-1:NIH trophozoites assessed as animal death at 50 to 100 mg/kg, po administered for 7 days from day 3 to day 10 post-infection measured at day 15 post-infection; format: organism-based; details: in vivo, 168 h
SMILES,IC50 (Trichomonas vaginalis [1]) [µM],inhibition at 300 µM (Trichomonas vaginalis [2]) [%],inhibition at 150 µM (Trichomonas vaginalis [3]) [%],inhibition at 75 µM (Trichomonas vaginalis [4]) [%],inhibition at 37.5 µM (Trichomonas vaginalis [5]) [%],inhibition at 18.75 µM (Trichomonas vaginalis [6]) [%],inhibition at 9.37 µM (Trichomonas vaginalis [7]) [%],inhibition of growth at 10 µg/mL (Trichomonas vaginalis [8]) [%],Activity (Vero) [%],CC50 at 24 h [9] [µM],Ratio CC50/IC50 [10],inhibition in vivo at 50 mg/kg (Trichomonas vaginalis [11]) [%],inhibition in vivo at 100 mg/kg (Trichomonas vaginalis [12]) [%],Activity (Mus musculus)
O=c1[nH]c2cc([N+](=O)[O-])ccc2n(CCCCCl)c1=O,151,94.9,40.6,21.4,18,12.7,8.25,,,,,,,
Cn1c(=O)c(=O)[nH]c2cc([N+](=O)[O-])ccc21,111,41.7,39,38.6,33.7,17.8,8.89,,,,,,,
CN1C(=O)CN(CCCCCl)c2ccc([N+](=O)[O-])cc21,,,,,,,,73,,,,,,
Cn1c(=O)c(=O)n(CCCCCCl)c2ccc([N+](=O)[O-])cc21,61.4,70.2,66.2,52.2,45.7,40.1,22.1,,0,> 300,>10,,,
CCN(CC)CCCN1CC(=O)Nc2cc([N+](=O)[O-])ccc21.Cl,38.9,88.6,64.2,59,55.5,28.8,23.1,,0.16,> 300,>10,,,
O=C1CN(CCCCCCl)c2ccc([N+](=O)[O-])cc2N1,,,,,,,,73,,,,,,
CN1C(=O)CN(CCCO)c2ccc([N+](=O)[O-])cc21,60.7,94.8,77.2,48.4,33.4,19,6.39,,5.07,> 300,>10,,,
CN(C)CCN1CC(=O)Nc2cc([N+](=O)[O-])ccc21.Cl,36.8,98.5,96.9,83.7,40.8,28.4,5.16,7,0,> 300,>10,,,
CN1C(=O)CN(CCCN2CCCCC2)c2ccc([N+](=O)[O-])cc21,110,99.3,63.3,28.4,26.6,18.6,6.97,7,,,,,,
Cn1c(=O)c(=O)n(CCCCCl)c2ccc([N+](=O)[O-])cc21,179,68.5,52.7,36.2,20.1,19.9,11.8,,,,,,,
Cn1c(=O)c(=O)n(C)c2cc([N+](=O)[O-])ccc21,235,61.4,35.4,22.5,18.6,15.8,12.9,,,,,,,
Cl.O=C1CN(CCCN2CCCCC2)c2ccc([N+](=O)[O-])cc2N1,18.3,100,98.9,82.4,70.3,58.4,24.2,7,3.26,> 300,>10,50.7,46.1,Non-toxic
O=c1[nH]c2cc([N+](=O)[O-])ccc2n(CCCCCCCl)c1=O,106,95.8,70.8,45.1,15.1,17,9.43,,,,,,,
CCN(CC)CCCN1CC(=O)N(C)c2cc([N+](=O)[O-])ccc21.Cl,32.4,100,100,96.1,55.5,14,1.8,,10.81,1240,38.07,,,
